Patent publication US20090149662A1, “PROCESSES FOR PREPARING ZAFIRLUKAST” (priority 2007, published 2009)

Assay: Stability studies of amorphous zafirlukast under storage/stress conditions (XRD)
Type: physicochemical
Source text: A sample of amorphous zafirlukast prepared using the above process was subjected to different conditions to determine the stability of the mixture under stress conditions.
The sample was packed in a clear polyethylene bag, tied with a tag, placed in a black polyethylene bag along with a silica pouch, which was filled with nitrogen, then sealed in a triple laminated bag, and finally sealed and stored in an HDPE drum.

Solid-form stability (XRD spectra) after storage (Long-term storage for 3 months, packed in polyethylene bags with silica pouch under nitrogen, triple laminated bag, HDPE drum): No change in XRD spectra | Solid-form stability (XRD spectra) after storage (Storage at 25 + 5 C. and 60 + 5% RH, same packing): No change in XRD spectra | Solid-form stability (XRD spectra) after storage (Storage at 40 + 5 C. and 70 + 5% RH, same packing): No change in XRD spectra
Substance: 4-(5-cyclopentyloxy-carbonylamino-1-methyl-indol-3-ylmethyl)-3-methoxy-N-O-tolylsulfonylbenzamide [Amorphous form]
